From patent publication US20230022235A1, “DUAL ANDROGEN RECEPTOR/AKR1C3 INHIBITORS” (The Regents of the University of California, priority 2019, published 2023) come the findings set out here.

Molecules are shown by their SMILES. Entries after “also recorded” stand apart in the source; their conditions may differ.

Series [1] concerns C4-2B MDVR cells. In words: RNAseq of genes associated with cancer cell proliferation and survival in C4-2B MDVR cells. Particulars: 5 μM, vs DMSO control. Format: cell-based. The procedure:
In addition, the effect of the compounds on the expression of genes involved in cancer was studied. Enzalutamide resistant C4-2B MDVR cells were treated with 5 μM of compound 1, 2, 5, or 8, or DMSO control.

Series [2] addresses T1, AR (Homo sapiens, UniProt P10275, T878A).
T1 construct: endogenous in cells; host or cells: LNCaP
T1 sequence (P10275 1-920 T878A): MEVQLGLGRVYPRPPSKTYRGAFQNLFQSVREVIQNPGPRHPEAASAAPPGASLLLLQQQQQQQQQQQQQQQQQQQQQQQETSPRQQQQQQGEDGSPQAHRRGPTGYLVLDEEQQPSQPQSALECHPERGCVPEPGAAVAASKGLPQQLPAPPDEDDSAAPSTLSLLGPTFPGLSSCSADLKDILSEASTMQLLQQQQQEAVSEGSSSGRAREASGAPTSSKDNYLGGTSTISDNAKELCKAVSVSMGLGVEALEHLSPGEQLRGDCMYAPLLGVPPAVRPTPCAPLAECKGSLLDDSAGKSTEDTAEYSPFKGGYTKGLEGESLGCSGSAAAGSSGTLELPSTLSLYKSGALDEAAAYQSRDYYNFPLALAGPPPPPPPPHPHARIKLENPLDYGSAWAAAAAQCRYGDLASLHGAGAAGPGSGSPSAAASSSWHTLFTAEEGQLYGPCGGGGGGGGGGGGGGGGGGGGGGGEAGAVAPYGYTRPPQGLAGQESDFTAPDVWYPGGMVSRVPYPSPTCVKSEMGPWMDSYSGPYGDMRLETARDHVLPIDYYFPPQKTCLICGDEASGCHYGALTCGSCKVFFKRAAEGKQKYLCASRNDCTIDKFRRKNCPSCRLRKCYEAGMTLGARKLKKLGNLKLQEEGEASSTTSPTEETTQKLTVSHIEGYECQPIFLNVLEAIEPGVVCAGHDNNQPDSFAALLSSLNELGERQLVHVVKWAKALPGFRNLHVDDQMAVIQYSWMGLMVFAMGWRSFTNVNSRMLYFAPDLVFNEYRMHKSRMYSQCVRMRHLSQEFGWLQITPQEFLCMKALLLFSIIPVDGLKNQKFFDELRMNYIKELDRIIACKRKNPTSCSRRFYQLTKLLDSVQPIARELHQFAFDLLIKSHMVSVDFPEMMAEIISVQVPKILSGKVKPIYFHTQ
In words: DHT-stimulated AR nuclear translocation in LNCaP cells (immunofluorescent staining). Format: cell-based. To be noted: charcoal stripped FBS. The protocol:
LNCaP cells cultured in charcoal stripped FBS conditions were treated with DHT and the compounds as indicated. AR expression were visualized by immunofluorescent staining.
(§1) Next, the effects of the new AR/AKR1C3 inhibitors on AR signaling were studied. […] To further confirm the inhibitory role of the compounds in AR signaling, enzalutamide resistant C4-2B MDVR cells (which have enhanced expression of AR, AR variants, and AKR1C3) were treated with 5 μM compound 1, 5 μM compound 5, or a DMSO control. Total RNA was isolated assessed using RNAseq.

For series [3], the system named is AR. In words: RNAseq of AR signaling genes in C4-2B MDVR cells. Format: cell-based. Particulars: 5 μM, vs DMSO control. The protocol:
as §1

In series [4] the test system is AR-V7. In words: RNAseq of AR-V7 signature genes in C4-2B MDVR cells. Particulars: 5 μM, vs DMSO control. Format: cell-based. The procedure:
as §1

For series [5], the system named is C4-2B MDVR cells. In words: Cell number of enzalutamide-resistant C4-2B MDVR cells. Format: cell-based. Particulars: 48 hrs. The protocol: C4-2B MDVR cells were treated with increasing doses of compound 1 for 48 hrs.
To evaluate whether compound 1 is an effective inhibitor of anti-androgen resistant cell growth, a series of resistant cells were treated with their respective anti-androgens for 48 hrs. Enzalutamide resistant MDVR cells, abiraterone resistant AbiR cells, apalutamide resistant ApaIR cells, and darolutamide resistant DaroR cells were treated with their respective anti-androgens: enza (20 μM), abi (20 μM), apal (20 μM), darolutamide (20 μM), or compound 1 (5 μM).

The test system of series [6] is MCF-7 breast cancer cells. The series is described as follows: Cell number of MCF-7 breast cancer cells. Format: cell-based. To be noted: 48 hrs.
The subject of series [7] is VCaP tumors. The series is described as follows: VCaP tumor model in intact SCID mice. Format: in vivo. Particulars: 20 mg/kg I.P. 5 days a week for 3 weeks. The protocol: Next the effects of compound 1 in vivo were studied in two separate models. First, intact SCID mice were injected with resistant prostate cancer VCaP cells suspended in matrigel. Once tumors were palpable, mice were divided into two groups: control or 20 mg/kg compound 1 administered I.P. 5 days a week for 3 weeks. Tumor volumes were measured twice weekly and mouse weights were monitored. At the end of treatment, tumors and serum were collected for assessment.

The test system of series [8] is LuCaP35CR tumors. In words: LuCaP35CR PDX model in castrated SCID mice. Format: in vivo. The protocol:
The LuCaP35CR PDX model was also employed to investigate the effects of compound 1 in vivo. For this model, SCID mice were castrated and implanted with LuCaP35CR tissues. Once tumors were palpable, mice were divided into two groups: control or 20 mg/kg compound 1 administered I.P. 5 days a week for 3 weeks. Tumor volumes were measured twice weekly and mouse weights were monitored. At the end of treatment, tumors and serum were collected for assessment.

Series [9] addresses T2, AKR1C3 (Homo sapiens, UniProt P42330).
T2 sequence (P42330 1-323): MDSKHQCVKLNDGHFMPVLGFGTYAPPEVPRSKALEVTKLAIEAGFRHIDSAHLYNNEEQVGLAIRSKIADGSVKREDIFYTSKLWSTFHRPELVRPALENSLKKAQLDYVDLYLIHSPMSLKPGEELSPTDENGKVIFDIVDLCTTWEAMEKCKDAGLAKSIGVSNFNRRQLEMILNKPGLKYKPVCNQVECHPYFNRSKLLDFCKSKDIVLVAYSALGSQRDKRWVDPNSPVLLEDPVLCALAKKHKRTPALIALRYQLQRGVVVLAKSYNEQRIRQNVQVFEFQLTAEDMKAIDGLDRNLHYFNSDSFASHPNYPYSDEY
In words: Ex vivo tumor based AKR1C3 enzyme assay (androstenedione conversion to testosterone). Format: cell-based. Particulars: ex vivo tumors, androstenedione 300 nmol/L, testosterone in supernatants. The protocol:
AKR1C3 plays a crucial role in the synthesis of testosterone, by catalyzing the conversion of the adrenal androgens dehydroepiandrosterone (DHEA) and androstenedione (AD) into testosterone. To determine the effects of compound 1 on inhibition of AKR1C3 enzymatic activity an ex vivo tumor based AKR1C3 enzyme assay was conducted. LUCaP35CX tumors, which express high levels of AKR1C3, were digested with 0.1% protease and cultured in medium supplemented with 10% heat-inactivated charcoal-dextran-stripped FBS. After overnight incubation, androstenedione (300 nmol/L) was added with or without compound 1. The supernatants were collected to measure testosterone.

The target in series [10] is T2, AKR1C3. In words: Aldo-Keto Reductase (AKR) Activity Assay Kit (Colorimetric) in LNCaP-AKR1C3 cells. Format: cell-based. On the set-up: expressed in transfected cells; host or cells: LNCaP-AKR1C3. Particulars: 48 hrs. The protocol: To examine whether compound 1 and compound 2 are useful in inhibiting AKR1C3 activity, LNCaP-AKR1C3 were treated with either compound 1 or compound 2 for 48 hrs. AKR1C3 enzymatic activity was determined by Aldo-Keto Reductase (AKR) Activity Assay Kit (Colorimetric), the results of which are shown in FIG. 2. Similarly, the inhibition of AKR1C3 activity was examined with varying doses of compound 1. LNCaP-AKR1C3 cells were treated with increasing doses of compound 1 for 48 hrs.

Where [11] appears, read: LuCaP35CR PDX, castrated SCID mice, 20 mg/kg I.P. 5 days a week for 3 weeks.

For the molecule `COc1ccc(C(=O)c2ccc(O)c(C(=O)Nc3cc(C(F)(F)F)cc(C(F)(F)F)c3)c2)cc1` [compound 8, N-(3,5-Bis(trifluoromethyl)phenyl)-2-hydroxy-5-(4-methoxybenzoyl)benzamide], the “expression of genes associated with cancer cell proliferation and survival” value in [1] was “greatly reduced expression of genes associated with cancer cell proliferation and survival; also recorded: inhibit genes associated with cancer cell proliferation and survival”.

As to `COc1ccc(Cc2ccc(O)c(C(=O)Nc3cc(C(F)(F)F)cc(C(F)(F)F)c3)c2)cc1` [compound 5, N-(3,5-bis(trifluoromethyl)phenyl)-2-hydroxy-5-(4-methoxybenzyl)benzamide], in [2], the “AR nuclear translocation / DHT-stimulated AR nuclear expression” value is recorded as “capable of inhibiting DHT-stimulated AR nuclear expression; also recorded: inhibit AR nuclear translocation”. Moreover, the “expression of genes associated with AR signaling (AR activity signature genes)” value in series [3] was “greatly reduced expression of genes associated with AR signaling; also recorded: inhibit AR activity signature genes”. Besides, the “expression of AR-V7 signature genes” value in series [4] is “reduced expression of AR-V7 signature genes; also recorded: inhibit AR-V7 activity signature genes”. In [1], the “expression of genes associated with cancer cell proliferation and survival” value was “greatly reduced expression of genes associated with cancer cell proliferation and survival; also recorded: inhibit genes associated with cancer cell proliferation and survival”.

On to `O=C(Nc1cc(C(F)(F)F)cc(C(F)(F)F)c1)c1cc(Cc2ccccc2)ccc1O` [compound 1, 5-benzyl-N-(3,5-bis(trifluoromethyl)phenyl)-2-hydroxybenzamide], for which the “total cell number (cell growth)” value in series [5] is listed as “inhibit cell growth”. For the same molecule, the “total cell number (cell growth), increasing doses” value in series [5] (increasing doses) is listed as “inhibited in dose-dependent fashion”; in series [6], “inhibited in dose dependent fashion”. Besides, the “serum PSA” value in series [7] (end of treatment) was “significantly decreased”; in series [8] (setting [11]) it was “reduced”. Further, the mouse body weight entry in series [7] (vs control) and in series [8] (setting [11]) was “no effect on mouse body weight” each time. Also, the “tumor volume / tumor growth” value in series [7] (vs control, 20 mg/kg) was “significantly decreased tumor volume; also recorded: inhibits VCaP tumor growth”; in [8] (LuCaP35CR PDX, castrated SCID mice, 20 mg/kg I.P. 5 days a week for 3 weeks, 20 mg/kg) it was “significantly decreased tumor volumes; also recorded: inhibits LuCaP35CR tumor growth”. Besides, the intratumoral testosterone levels result in series [8] (setting [11]) was “significantly reduced intratumoral testosterone levels”. Also, in series [8] (conclusion from VCaP and LuCaP35CR mouse models, 20 mg/kg I.P.), the tolerability entry is “well-tolerated”. For the same molecule, the “androstenedione conversion to testosterone” value in [9] was “dose-dependent inhibition; also recorded: inhibits the conversion from androstenedione to testosterone”. For the same molecule, in series [2], the “AR nuclear translocation / DHT-stimulated AR nuclear expression” value was “capable of inhibiting DHT-stimulated AR nuclear expression; also recorded: inhibit AR nuclear translocation”. In addition, in series [3], the “expression of genes associated with AR signaling (AR activity signature genes)” value is reported as “greatly reduced expression of genes associated with AR signaling; also recorded: inhibit AR activity signature genes”. In addition, the “expression of AR-V7 signature genes” value in [4] is “reduced expression of AR-V7 signature genes; also recorded: inhibit AR-V7 activity signature genes”. For the same molecule, in series [1], the “expression of genes associated with cancer cell proliferation and survival” value is “greatly reduced expression of genes associated with cancer cell proliferation and survival; also recorded: inhibit genes associated with cancer cell proliferation and survival”. Further, the AKR1C3 enzymatic activity result in series [10] is “inhibit AKR1C3 activity”. Moreover, in series [10] (increasing doses), the “AKR1C3 enzymatic activity, increasing doses” value is reported as “inhibited in dose-dependent fashion”.
